From publication PMC4839630, “Investigation the Possibility of Using Peptides with a Helical Repeating Pattern of Hydro-Phobic and Hydrophilic Residues to Inhibit IL-10” (PLoS ONE, 2016)
Ends that are not written are not given here.

Legend:
[1] = tested on: IL-10R on U937 cells; assay: Surface staining of IL-10 receptor (PE anti-IL10R antibody) on U937 cells by flow cytometry; format: cell-based, human; conditions: U937 stimulated overnight with LPS (4×10^−3 μM); P1 4.5 μM, P2 4.1 μM, P3 5.6 μM, P4 4.2 μM; MFI by flow cytometry
Procedure: Human macrophage cell line U937 was maintained in complete RPMI 1640 media (Gibco) supplemented with 10% heat inactivated FCS, 100 U of penicillin/ml and 100 μg of streptomycin/ml and were cultured at 37°C with 5% CO2.
In vitro stimulation of U937 cells: 2–5×10^5 of U937 cells were cultured in 1 mL of RPMI with 10% human serum containing 100 U of ampicillin and 100 U of streptomycin. The U937 cells were either unstimulated or stimulated with 4×10^−3 μM of LPS (Sigma, Cat. L3024-5MG) overnight, in the presence of different concentration of P1, P2 or P3 or anti-IL-10 (10 μg/mL, ~0.3 μM) or anti-IL-10R (10 μg/mL, ~0.1 μM) antibodies. Supernatants were collected and stored at -80°C till use.
Surface staining of IL-10 receptor on U937 cell membrane: 2–5×10^5 of U937 cells were stained with PE conjugated anti-IL10R antibody for 30 minutes on ice, then washed with PBS with 2% of FCS and analysed with an Acuri flowcytometor (BD, USA) as described previously.

[2] = target: T1, IL-10R1 (Homo sapiens, UniProt Q13651); assay: SPR binding to immobilised IL-10R1; conditions: SPR Biacore T100, CM5 chip, 1X PBS pH 7.4, 25°C, 10 μL/min; steady-state affinity analysis, three independent repeats
T1 construct: purchased Creative BioMart, USA IL10RA-212H
T1 sequence (Q13651 22-578): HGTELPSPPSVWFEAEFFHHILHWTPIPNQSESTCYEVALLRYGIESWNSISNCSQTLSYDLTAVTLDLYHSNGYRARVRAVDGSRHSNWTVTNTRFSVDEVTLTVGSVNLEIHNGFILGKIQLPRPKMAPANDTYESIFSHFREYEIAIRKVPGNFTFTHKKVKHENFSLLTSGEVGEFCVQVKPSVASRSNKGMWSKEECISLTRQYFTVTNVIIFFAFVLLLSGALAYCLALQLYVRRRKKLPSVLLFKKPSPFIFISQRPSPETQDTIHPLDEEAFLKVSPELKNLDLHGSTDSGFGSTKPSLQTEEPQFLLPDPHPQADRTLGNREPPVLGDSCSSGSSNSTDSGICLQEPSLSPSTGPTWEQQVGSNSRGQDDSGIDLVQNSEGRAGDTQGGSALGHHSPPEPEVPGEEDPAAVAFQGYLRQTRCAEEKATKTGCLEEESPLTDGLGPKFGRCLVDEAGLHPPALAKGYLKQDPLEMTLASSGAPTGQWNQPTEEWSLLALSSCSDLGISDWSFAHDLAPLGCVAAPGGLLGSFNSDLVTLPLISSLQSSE

[3] = tested on: U937 cells; assay: 7-AAD cell-viability assay; format: cell-based, human; conditions: two independent assays, flow cytometry
Procedure: 7-AAD assay: 7-AAD Viability Staining Solution was purchased from eBioscience (Cat. 00–6993). Briefly, 5 μL of 7-aad were added to 5×10^5 cells for 5 minutes, and 7-aad staining was measured by a BD Accuri flow cytometry.
In order for a peptide to be useful as potential drug candidates, its cytotoxicity has to be low. We evaluated the cytotoxicity of P1 and P2 using 7-AAD cell-viability assay (S5 Fig).

[4] = target: IL-10 (Homo sapiens, UniProt P22301); assay: SPR binding to immobilised IL-10; parameters: purchased ebioscience BMS/346; conditions: SPR Biacore T100, CM5 chip, 1X PBS pH 7.4, 25°C, 10 μL/min; steady-state affinity analysis, three independent repeats
[5] = tested on: MC/9 cells; assay: MC/9 cell proliferation, MTT assay; format: cell-based, mouse; conditions: 5×10^−5 μM IL-10, 1×10^4 cells, 48 h, media with 2×10^−5 μM IL4
Procedure: Murine mast cell MC/9 cell line was purchased from ATCC, USA and cultured following the protocols in the product sheets. Briefly, MC/9 cells were cultured in complete RPMI 1640 media (Gibco) supplemented with 10% heat inactivated fetal calf serum (FCS), 100 U of penicillin/ml and 100 μg of streptomycin/ml and were cultured at 37°C with 5% CO2 and 5 ng of murine IL-4 or 1 ng of human IL-10 as recommended by ATCC, with or without adding P1, P2 or P3 respectively. MC/9 cell proliferation was determined by MTT assay (purchased from ATCC, USA) following the instruction of manufacturer.
Mouse mast cell line MC/9 growth is IL-10 dependent. We therefore investigated whether P1 or P2 is able to prevent IL-10 mediated MC/9 cell growth. MC/9 cells were cultured at different numbers for 48 hours and cell proliferation was measured by MTT assay, which measures the MC/9 cell proliferation. […] Thus, cell number of 1×10^4 was selected in the assay.

Question: With Lipopolysaccharide [LPS] as the molecule, how does the “binding of PE anti-IL-10R antibody (clone 3F9) to IL-10R on U937 cells” value [1] read?
Answer: More antibody binds to IL-10R1 after LPS stimulation, and is positively correlated with the dose of LPS

Question: How did the Kd [2] turn out when FFKKFFKKFFKKFFKK [P1] was run?
Answer: 16 ± 1.95 µM

Question: And the “cell death, 7-AAD (in words)” value [3]?
Answer: there is no significant difference for cell death in the presence or absence of P1 or P2

Question: What about the Kd [4] of the same molecule?
Answer: 8.94 ± 0.37 µM

Question: How did the “cell death, 7-AAD (in words)” value [3] turn out when FFRRFFRRFFRRFFRR [P2] was run?
Answer: there is no significant difference for cell death in the presence or absence of P1 or P2

B1: IL-10: Human IL10 purchased from ebioscience (Cat. No: BMS/346) (protein)
chain: SPGQGTQSENSCTHFPGNLPNMLRDLRDAFSRVKTFFQMKDQLDNLLLKESLLEDFKGYLGCQALSEMIQFYLEEVMPQAENQDPDIKAHVNSLGENLKTLRLRLRRCHRFLPCENKSKAVEQVKNAFNKLQEKGIYKAMSEFDIFINYIEAYMTMKIRN
Question: How did the “increase in MC/9 cell proliferation” value [5] turn out when B1 was run?
Answer: approximately 133%
